Test results as given in patent publication US20030220310A1, “Epoxy-steroidal aldosterone antagonist and calcium channel blocker combination therapy for treatment of congestive heart failure” (priority 2003, published 2003).
“And” between values parts separate entries of the source, which are not always exact repeats. Identical values can stand only once.

Legend:
[1] = tested on: rats made hypertensive by renal artery clip; assay: Assay C: Hypertensive Rat Model; type: in vivo; conditions: combination of calcium channel blocker and epoxymexrenone versus either component alone, after 12 to 24 weeks
Protocol: Assay “C”: Hypertensive Rat Model Male rats are made hypertensive by placing a silver clip with an aperture of 240 microns on the left renal artery, leaving the contralateral kidney untouched. Sham controls undergo the same procedure but without attachment of the clip. One week prior to the surgery, animals to be made hypertensive are divided into separate groups and drug treatment is begun. Groups of animals are administered vehicle, calcium channel blocker alone, epoxymexrenone alone, and combinations of calcium channel blocker and epoxymexrenone at various doses: [table] After 12 to 24 weeks, systolic and diastolic blood pressure, left ventricular end diastolic pressure, left ventricular dP/dt, and heart rate are evaluated. The hearts are removed, weighed, measured and fixed in formalin. Collagen content of heart sections are evaluated using computerized image analysis of picrosirius stained sections.

[2] = tested on: rats with ligated left anterior descending coronary artery; assay: Assay D: Myocardial Infarction Rat Model; type: in vivo; conditions: combination of calcium channel blocker and epoxymexrenone versus either component alone, after six weeks
Protocol: Assay “D”: Myocardial Infarction Rat Model: Male rats are anesthetized and the heart is exteriorized following a left sided thoracotomy. The left anterior descending coronary artery is ligated with a suture. The thorax is closed and the animal recovers. Sham animals have the suture passed through without ligation. One week prior to the surgery, animals to undergo infarction are divided into separate groups and drug treatment is begun. Groups of animals are administered vehicle, calcium channel blocker alone, epoxymexrenone alone, and combinations of calcium channel blocker and epoxymexrenone, at various doses, as follow: [table] After six weeks, systolic and diastolic blood pressure, left ventricular end diastolic pressure, left ventricular dP/dt, and heart rate are evaluated. The hearts are removed, weighed, measured and fixed in formalin. Collagen content of heart sections are evaluated using computerized imaged image analysis of picrosirius stained sections.

[3] = tested on: patients with mild to moderate hypertension; assay: Example 19 clinical study: eplerenone versus placebo co-administered with a calcium-channel blocker; type: in vivo, human
Source text: This multicenter, randomized, double-blind, placebo-controlled, placebo run-in, parallel group trial involving a minimum of 120 randomized patients with hypertension (seated diastolic blood pressure [seDBP] ≧95 mmHg and <110 mmHg and seated systolic BP [seSBP] <180 mmHg while taking a CCB) will consist of a one- to two-week pretreatment screening period followed by a two- to four-week single-blind placebo run-in period and an 8-week double-blind treatment period. Eligible patients will be patients currently receiving a CCB as part of their antihypertensive medication. […] The dose will not be changed for patients with adequate BP control. […] If the dose has been increased at Week 2, the patient will be reassessed at Week 6. […] If BP is uncontrolled at Week 6 and the dose has been increased at Week 2 or Week 4, the patient must be withdrawn from the study. If symptomatic hypotension (i.e., lightheadedness, dizziness, or syncope associated with low BP) occurs at any time during the study, or if DBP is ≧110 mmHg or SBP is ≧180 mmHg at any time during the trial, the patient must be withdrawn. Patients will receive study medication for a total of 8 weeks.
Patients will return to the clinic for evaluations at Weeks 0 (baseline), 2, 4, 6, 8, and 9. Heart rate, BP, adverse events and concomitant medication will be assessed at each visit. Hematology and biochemistry evaluations and urinalysis for safety will be at Weeks 0, 8, and 9. Serum potassium levels will be determined at Weeks 0 (baseline), 2, 4, 6, 8, and 9. Plasma renin, serum aldosterone, and plasma cortisol will be determined at Weeks 0 and 8. A 12-lead electrocardiogram and physical examination will be done at screening and at Week 9.
Eligible patients will be either currently receiving a CCB alone, or receiving a CCB as part of their antihypertensive medication. […] The dose will not be changed for patients with adequate BP control. […] If the dose has been increased at Week 2, the patient will be reassessed at Week 6. The dose of study medication will not be changed for patients with adequate BP control. […] If BP is uncontrolled at Week 6 and the dose has been increased at Week 2 or Week 4, the patient must be withdrawn from the study. The dose of study medication will not be changed for patients with adequate BP control. If symptomatic hypotension (i.e., lightheadedness, dizziness, or syncope associated with low BP) occurs at any time during the study, or if DBP is ≧110 mmHg or SBP is ≧180 mmHg at any time during the study, the patient must be withdrawn. Patients will receive study medication for a total of eight weeks.
Patients will return to the clinic for evaluations at Weeks 0, 2, 4, 6, 8, and 9. Heart rate, BP, adverse events and concomitant medication will be assessed at each visit. Hematology and biochemistry evaluations and urinalysis for safety will be at Weeks 0, 8, and 9. Serum potassium levels will be determined at Weeks 0, 2, 4, 6, 8, and 9. Plasma renin, serum aldosterone, and plasma cortisol will be determined at Weeks 0 and 8. A 12-lead electrocardiogram and physical examination will be done at screening and at Week 9.
The treatment difference will be evaluated based on the mean change from baseline in seated trough cuff DBP at Week 8.

[4] = tested on: patients with heart failure after an acute myocardial infarction; assay: Example 20 clinical study: eplerenone plus CCB in heart failure following acute myocardial infarction; type: in vivo, human
Source text: Clinical Study: Safety and Efficacy of Eplerenone When Co-Administered with a Calcium-Channel Blocker in Patients with Heart Failure Followin Acute Myocardial Infarctiong
Secondary endpoints include cardiovascular morbidity and mortality. The study is a multicenter, randomized, double-blind, placebo-controlled, two-arm, parallel group trial that will continue until 1,012 deaths occur, which is estimated to require approximately 6,200 randomized patients followed for an average of approximately 2.5 years.
Eligible patients may be identified for inclusion at any time following emergency room evaluation and presumptive diagnosis of AMI with HF. […]
Patients will receive CCB therapy and may have received anticoagulants and antiplatelet agents, and may have received thrombolytics or emergency angioplasty. […] Serum potassium will be determined at 48 hours after initiation of treatment, at 1 and 5 weeks, at all other scheduled study visits, and within one week following any dose change.
Study visits will occur at screening, baseline (randomization), 1 and 4 weeks, 3 months, and every 3 months thereafter until the study is terminated. […] Vital signs (seated heart rate and BP), New York Heart Association (NYHA) functional class, adverse events, and selected concurrent medications will be recorded at every visit. […]

[5] = Differential scanning calorimetry, melting/decomposition; type: physicochemical; conditions: cooling rate (0) 1.5° C./min.; endpoint (0) 25° C.; 100.8% eplerenone seeded with Form H; analyzed by DSC
Source text: Melting/decomposition ranges were defined from the extrapolated onset to the maximum of the melting/decomposition endotherm. […] One or more endothermal events at lower temperatures were associated with enthalpy changes that occurred as solvent was lost from the solvate crystal lattice. The highest temperature endotherm or endotherms were associated with the melting/decomposition of Form L or Form H eplerenone.

[6] = X-ray powder diffraction, Form H content of dried solids; type: physicochemical; conditions: for Form H Peak Area 12° Two Theta Peak / Estimated Weight Percent of Form H: methyl ethyl ketone solvate dried at 100° C.
[7] = CCB and eplerenone compared to CCB and placebo
[8] = eplerenone plus CCB versus CCB plus placebo, eight weeks, hypertensive patients
[9] = 3% diepoxide in starting eplerenone mixture
[10] = 10% 11,12-epoxide in starting eplerenone mixture

## COC(=O)[C@@H]1CC2=CC(=O)CC[C@]2(C)C23O[C@@H]2C[C@@]2(C)[C@@H](CC[C@@]24CCC(=O)O4)[C@H]13 (stereo partly drawn) [eplerenone, Pregn-4-ene-7,21-dicarboxylic acid, 9,11-epoxy-17-hydroxy-3-oxo-,γ-lactone, methyl ester, (7α,11α,17β)-]
[1]
  cardiac performance: improvements in cardiac performance
[2]
  cardiac performance: improvements in cardiac performance
[3]; [7]
  Active renin levels: greater increase
  aldosterone levels: greater increase
[3]; eplerenone added to CCB therapy
  serious adverse events: no serious adverse events
[3]; [8]
  change in mean diastolic blood pressure: greater for the dual therapy group, compared to monotherapy, but this difference did not reach statistical significance
  change in systolic blood pressure: significant reduction
[4]; eplerenone plus CCB relative to CCB alone
  primary end point of all cause mortality: Improvement
[4]; eplerenone plus CCB versus CCB alone
  secondary end points (cardiovascular mortality, hospitalizations, quality of life etc.): Beneficial effects
[5]
  Weight Percent Form H (DSC): 100 Weight Percent
[6]; 1% 11,12-epoxide in starting eplerenone mixture
  Form H Peak Area 12° Two Theta Peak: None Detected
[6]; [9]
  Estimated Weight Percent of Form H: 10%
  Form H Peak Area 12° Two Theta Peak: 1168
[6]; 5% diepoxide in starting eplerenone mixture
  Form H Peak Area 12° Two Theta Peak: 4175
[6]; [10]
  Estimated Weight Percent of Form H: 10-15%
  Form H Peak Area 12° Two Theta Peak: 1541
[6]; Cooling Rate High, End Point High, Impurity Level High, High Fluid Bed drying
  Weight Percent Form H: 25%
[6]; Cooling Rate High, End Point High, Impurity Level High, Low Fluid Bed drying
  Weight Percent Form H: 4.7%
[6]; Cooling Rate High, End Point High, Impurity Level High, Vacuum Oven drying
  Weight Percent Form H: 29%
[6]; Cooling Rate Low, End Point Low, Impurity Level Low, Low Fluid Bed drying
  Weight Percent Form H: 5.5%
[6]; cooling rate (0) 1.5° C./min., endpoint (0) 25° C., 100.8% eplerenone seeded with Form H, analyzed by XPRD
  Weight Percent Form H (XPRD): 77 Weight Percent
[6]; cooling rate (0) 1.5° C./min., endpoint (0) 25° C., impurity level (0) = 100.8% purity eplerenone starting material as printed, three runs
  Weight Percent Form H (XPRD): 5 Weight Percent and <3% Weight Percent
[6]; cooling rate (+) 3° C./min., endpoint (+) 45° C., impurity level (+) 89.3% purity eplerenone starting material
  Weight Percent Form H (XPRD): 29 Weight Percent
[6]; cooling rate (+) 3° C./min., endpoint (−) 5° C., impurity level (+) 89.3% purity eplerenone starting material
  Weight Percent Form H (XPRD): 9 Weight Percent
[6]; cooling rate (−) 0.1° C./min., endpoint (+) 45° C., impurity level (+) 89.3% purity eplerenone starting material
  Weight Percent Form H (XPRD): 31 Weight Percent
